US20190322676A1, “CERAMIDE GALACTOSYLTRANSFERASE INHIBITORS FOR THE TREATMENT OF DISEASE” (BioMarin Pharmaceutical Inc., priority 2016, published 2019)
Structures can show the parent of a compound that is named as a salt.

Target: T1, human CGT (ceramide galactosyltransferase), CHO/CGT lysate (Homo sapiens, UniProt Q16880)
T1 construct: Full-length human CGT cDNA was cloned into the BamH1/Xho1 site of pcDNA3.1 (+); expressed in transfected cells; host or cells: Chinese hamster ovary (CHO) cells; lysate prepared with M-PER
T1 sequence (Q16880 21-541): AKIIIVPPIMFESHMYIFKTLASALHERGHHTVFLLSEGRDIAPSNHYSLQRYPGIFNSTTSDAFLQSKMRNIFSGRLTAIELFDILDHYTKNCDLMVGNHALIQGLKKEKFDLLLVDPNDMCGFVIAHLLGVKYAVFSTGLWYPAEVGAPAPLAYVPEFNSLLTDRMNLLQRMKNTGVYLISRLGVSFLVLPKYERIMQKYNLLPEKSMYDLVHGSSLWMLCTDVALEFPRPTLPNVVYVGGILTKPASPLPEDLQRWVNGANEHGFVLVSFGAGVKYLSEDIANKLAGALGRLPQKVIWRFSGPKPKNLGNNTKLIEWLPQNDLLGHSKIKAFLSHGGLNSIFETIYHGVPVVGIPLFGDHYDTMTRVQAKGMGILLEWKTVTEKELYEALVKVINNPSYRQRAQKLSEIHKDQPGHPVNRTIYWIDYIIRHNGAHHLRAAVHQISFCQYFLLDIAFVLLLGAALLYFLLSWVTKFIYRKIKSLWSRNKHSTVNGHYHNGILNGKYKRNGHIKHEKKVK
Test: CGT enzyme assay, RapidFire/MS/MS readout (Table 1 ranges with one asterisk *)
Type: biochemical
Conditions: RapidFire method (range with one asterisk *)
Method: Full-length human CGT cDNA was cloned into the BamH1/Xho1 site of pcDNA3.1 (+) mammalian expression vector (V90-20, Invitrogen, Carlsbad, Calif.) and the plasmid was transfected into Chinese hamster ovary (CHO) cells. Lysate was prepared using M-PER (Mammalian Protein Extraction Reagent, ThermoFisher Scientific, Grand Island, N.Y.) in the presence of a protease inhibitor cocktail (P8340, Sigma, Saint Louis, Mo.). Each 100 mm dish (100% confluent, approximately 1×10^7 cells) was lysed with 250 μL of M-PER containing protease inhibitors. Protein concentration was determined using a Pierce BCA protein assay kit (ThermoFisher Scientific). Four micrograms of CHO/CGT lysate was incubated with various concentrations of a compound (0.001 μM-50 μM) in 10 mM HEPES (pH 7.2) containing 35 μM dioleoylphosphatidylcholine, 5 mM MgCl2, 5 mM MnCl2, 1% BSA, 15 mM KCl, 1 mM EGTA, 8 mM CHAPS, 10 μM C6-NBD-dihydro-ceramide and 17.5 μM UDP-galactose in a final reaction volume of 20 μL at 37° C. for 1 hour. The final concentration of DMSO was 0.5% in both compound-treated and mock-treated samples. Tween 80 (0.01%) was optionally added to the reaction mixture to help solubilize the compounds. Each individual reaction was diluted with 80 μL of methanol:acetronitrile (1:3) containing 5 μM N-docdecanoyl-NBD-galactosylceramide (internal standard) to stop the reaction. 200 μL H2O:acetonitile (1:1) was added to precipitate the protein. After sufficient mixing, the plates were centrifuged at 2469 g for 38 minutes, 200 μL of supernatant was transferred to a LC/MS 96-deep well plate and a second spin was performed at 2469 g for 10 minutes. The final supernatant was injected in triplicate for RapidFire/MS/MS analysis.
Quantitative Analysis Using the RapidFire/MS/MS Method:
The quantitative analysis of C6-NBD-dihydro-ceramide and C6-NBD-dihydro-galactosylceramide was performed on a Rapid Fire 360 high-throughput mass spectrometry system (Agilent Technologies, Palo Alto, Calif.) coupled with a API4000^+ triple quadrupole mass spectrometer (Applied Biosystems, Concord, Ontario, Canada). RapidFire software packages, including RapidFire Control panel, RapidFire UI and RapidFire Integrator (Agilent Technologies), were used to control the RapidFire instrument and to process data. Analyst 1.6.2 software packages (Applied Biosystems) were used to control the MS system and acquire MS data. […] of sample was loaded on a micro-scale C4 solid-phase extraction (SPE) cartridge (Agilent Technologies) and salts were removed using water supplemented with 0.1% formic acid at the flow rate of 1.5 mL/min for 3 sec. C6-NBD-dihydro-ceramide and C6-NBD-dihydro-galactosylceramide were co-eluted into the mass spectrometer using acetonitrile containing 0.1% formic acid at the flow rate of 1.0 mL/min for 3 sec. The total cycle time of one injection was 8 secs. The MS/MS detection was performed in ESI negative mode. The mass transition of C6-NBD-dihydro-galactosylceramide was m/z 752.6→678.6 using a −40 V collision energy, the mass transition of C6-NBD-dihydro-ceramide was m/z 590.6→115.8 using a −40 V collision energy and the mass transition of N-docdecanoyl-NBD-galactosylceramide was m/z 820.9→746.3 using a −45 V collision energy.
The C6-NBD-dihydro-galactosylceramide reading was normalized first by dividing the peak area of C6-NBD-dihydro-galactosylceramide by the peak area of the internal standard, N-docdecanoyl-NBD-galactosylceramide. IC50 values (see Table 1, where data ranges with one asterix (*) correspond to analysis using the RapidFire/MS/MS method, and data ranges with two asterixes (**) correspond to analysis using the RapidFire/MS/MS method with 0.01% Tween added) were generated from sigmoidal dose-response curves (variable slope) with GraphPad Prism software (GraphPad Software, Inc., San Diego, Calif.) using the normalized peak areas of C6-NBD-dihydro-galactosylceramide or the percent inhibition of C6-NBD-dihydro-galactosylceramide accumulation relative to DMSO control. […]

Q: CCCCOc1ccc(C(F)(F)[C@H](C(=O)N2C3CCC2CC(N)C3)N(C)S(=O)(=O)c2ccc3cc(OC4CCCC4)ccc3c2)cc1 (stereo partly drawn) [Compound 51-2, N-((2S)-3-(3-amino-8-azabicyclo[3.2.1]octan-8-yl)-1-(4-butoxyphenyl)-1,1-difluoro-3-oxopropan-2-yl)-6-(cyclopentyloxy)-N-methylnaphthalene-2-sulfonamide] was tested. Which IC50 did it give?
A: 1 to 10 µM

Q: How did the IC50 turn out when NC1CC2CCC(C1)N2C(=O)[C@H](NS(=O)(=O)c1ccc2cc(OC3CCCC3)ccc2c1)C(F)(F)c1ccc(-c2ccc(C(F)(F)F)cc2)cc1 (stereo partly drawn) [Compound 55-2, N-((2S)-3-(3-amino-8-azabicyclo[3.2.1]octan-8-yl)-1,1-difluoro-3-oxo-1-(4′-(trifluoromethyl)-[1,1′-biphenyl]-4-yl)propan-2-yl)-6-(cyclopentyloxy)naphthalene-2-sulfonamide trifluoroacetate] was run?
A: 1 to 10 µM

Q: For NC1CC2CCC(C1)N2C(=O)[C@H](NS(=O)(=O)c1ccc2cc(OC3CCCC3)ccc2c1)C(F)(F)c1ccc(Cl)cc1 (stereo partly drawn) [Compound 28-2, N-((2S)-3-(3-amino-8-azabicyclo[3.2.1]octan-8-yl)-1-(4-chlorophenyl)-1,1-difluoro-3-oxopropan-2-yl)-6-(cyclopentyloxy)naphthalene-2-sulfonamide trifluoroacetate], which IC50 is on record?
A: 1 to 10 µM

Q: NC1CCN(C(=O)[C@@H](NS(=O)(=O)c2ccc3cc(OC4CCCC4)ccc3c2)C(F)(F)c2cccc(-c3ccccc3)c2)CC1 [Compound 69-1, (R)—N-(1-([1,1′-biphenyl]-3-yl)-3-(4-aminopiperidin-1-yl)-1,1-difluoro-3-oxopropan-2-yl)-6-(cyclopentyloxy)naphthalene-2-sulfonamide trifluoroacetate] was tested. Which IC50 did it give?
A: 1 to 10 µM

Q: Which IC50 does the source give for CN([C@H](C(=O)N1C2CCC1CC(N)C2)C(F)(F)c1ccc(Br)cc1)S(=O)(=O)c1ccc2nn(CC3CCCC3)cc2c1 (stereo partly drawn) [Compound 78-1, N-((2R)-3-(3-amino-8-azabicyclo[3.2.1]octan-8-yl)-1-(4-bromophenyl)-1,1-difluoro-3-oxopropan-2-yl)-2-(cyclopentylmethyl)-N-methyl-2H-indazole-5-sulfonamide] here?
A: 1 to 10 µM

Q: For NC1CC2CCC(C1)N2C(=O)[C@H](NS(=O)(=O)c1ccc2nn(CC3CCCC3)cc2c1)C(F)(F)c1ccc(Br)cc1 (stereo partly drawn) [Compound 77-2, N-((2S)-3-(3-amino-8-azabicyclo[3.2.1]octan-8-yl)-1-(4-bromophenyl)-1,1-difluoro-3-oxopropan-2-yl)-2-(cyclopentylmethyl)-2H-indazole-5-sulfonamide], which IC50 is on record?
A: 30 to 100 µM

Q: Which IC50 does the source give for COc1cc(C(F)(F)[C@@H](NS(=O)(=O)c2ccc3cc(OC4CCCC4)ccc3c2)C(=O)N2C3CCC2CC(N)C3)ccc1Cl (single isomer, unassigned) [Compound 124-2] here?
A: 1 to 10 µM

Q: Which IC50 does the source give for CN([C@H](C(=O)N1C2CCC1CC(N)C2)C(F)(F)c1ccc(OCCN2CCCCC2)cc1)S(=O)(=O)c1ccc2cc(OC3CCCC3)ccc2c1 (stereo partly drawn) [Compound 116-1, N-((2R)-3-(3-amino-8-azabicyclo[3.2.1]octan-8-yl)-1,1-difluoro-3-oxo-1-(4-(2-(piperidin-1-yl)ethoxy)phenyl)propan-2-yl)-6-(cyclopentyloxy)-N-methylnaphthalene-2-sulfonamide] here?
A: 30 to 100 µM

Q: How did the IC50 turn out when CCCCOc1cc(C(F)(F)[C@H](NS(=O)(=O)c2ccc3cc(OC4CCCC4)ccc3c2)C(=O)N2C3CCC2CC(N)C3)ccc1Cl (stereo partly drawn) [Compound 118-1, N-((2R)-3-(3-amino-8-azabicyclo[3.2.1]octan-8-yl)-1-(3-butoxy-4-chlorophenyl)-1,1-difluoro-3-oxopropan-2-yl)-6-(cyclopentyloxy)naphthalene-2-sulfonamide] was run?
A: < 1 µM

Q: For NC1CCN(C(=O)[C@H](NS(=O)(=O)c2ccc3cc(OC4CCCC4)ccc3c2)C(F)(F)c2ccc(Cl)s2)CC1 [Compound 131-2, (S)—N-(3-(4-aminopiperidin-1-yl)-1-(5-chlorothiophen-2-yl)-1,1-difluoro-3-oxopropan-2-yl)-6-(cyclopentyloxy)naphthalene-2-sulfonamide], which IC50 is on record?
A: 1 to 10 µM

Q: For NC1CCN(C(=O)[C@@H](NS(=O)(=O)c2ccc3cc(OC4CCCC4)ccc3c2)C(F)(F)c2cccc(Oc3ccccc3)c2)CC1 [Compound 108-1, (R)—N-(3-(4-aminopiperidin-1-yl)-1,1-difluoro-3-oxo-1-(3-phenoxyphenyl)propan-2-yl)-6-(cyclopentyloxy)naphthalene-2-sulfonamide], which IC50 is on record?
A: < 1 µM

Q: NC1CC2CCC(C1)N2C(=O)[C@H](NS(=O)(=O)c1ccc2cc(OC3CCCC3)ccc2c1)C(F)(F)c1ccc(I)cc1 (stereo partly drawn) [Compound 42-2, N-((2S)-3-(3-amino-8-azabicyclo[3.2.1]octan-8-yl)-1,1-difluoro-1-(4-iodophenyl)-3-oxopropan-2-yl)-6-(cyclopentyloxy) naphthalene-2-sulfonamide trifluoroacetate] was tested. Which IC50 did it give?
A: 1 to 10 µM

Q: COc1cc(C(F)(F)[C@@H](NS(=O)(=O)c2ccc3cc(OC4CCCC4)ccc3c2)C(=O)N2C3CCC2CC(N)C3)ccc1Br (stereo partly drawn) [Compound 89-2, N-((2S)-3-(3-amino-8-azabicyclo[3.2.1]octan-8-yl)-1-(4-bromo-3-methoxyphenyl)-1,1-difluoro-3-oxopropan-2-yl)-6-(cyclopentyloxy)naphthalene-2-sulfonamide] was tested. Which IC50 did it give?
A: 1 to 10 µM

Q: How did the IC50 turn out when NC1CC2CCC(C1)N2C(=O)[C@@H](NS(=O)(=O)c1ccc2c(cnn2CC2CCCC2)c1)C(F)(F)c1ccc(Cl)cc1 (stereo partly drawn) [Compound 88-1, N-((2R)-3-(3-amino-8-azabicyclo[3.2.1]octan-8-yl)-1-(4-chlorophenyl)-1,1-difluoro-3-oxopropan-2-yl)-1-(cyclopentylmethyl)-1H-indazole-5-sulfonamide] was run?
A: 1 to 10 µM

Q: Which IC50 does the source give for COc1ccc(C(F)(F)[C@H](NS(=O)(=O)c2ccc3cc(OC4CCCC4)ccc3c2)C(=O)N2C3CCC2CC(N)C3)cc1 (stereo partly drawn) [Compound 45-1, N-((2R)-3-(3-amino-8-azabicyclo[3.2.1]octan-8-yl)-1,1-difluoro-1-(4-methoxyphenyl)-3-oxopropan-2-yl)-6-(cyclopentyloxy)naphthalene-2-sulfonamide] here?
A: 10 to 30 µM

Q: For NC1CC2CCC(C1)N2C(=O)[C@H](NS(=O)(=O)c1ccc(OCC2CCCCC2)cc1)C(F)(F)c1ccc2cc(Br)ccc2c1 (stereo partly drawn) [Compound 40-2, N-((2S)-3-(3-amino-8-azabicyclo[3.2.1]octan-8-yl)-1-(6-bromonaphthalen-2-yl)-1,1-difluoro-3-oxopropan-2-yl)-4-(cyclohexylmethoxy)benzenesulfonamide trifluoroacetate], which IC50 is on record?
A: 10 to 30 µM
